Our source for the IC50 values is patent US8420657B2 (Novartis AG, priority 2008, dated 2013).

The term IC50 denotes the concentration that inhibits the measured activity by half.

One experiment concerns the target T1, GST-JAK2(808-1132) (Homo sapiens, UniProt O60674).
T1 construct: GST-JAK2(808-1132); purchased Invitrogen (Carlsbad, USA) #4288
Description: JAK2 kinase assay (Caliper mobility shift, LabChip 3000). Type of experiment: biochemical. Put shortly: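 Recombinant GST-JAK2(808-1132) kinase domain with FITC-labelled JAK3tide peptide substrate and ATP; 60 min at 30 °C, EDTA stop. Substrate/product ratio read by microfluidic mobility shift; compounds at 8 final concentrations, 10 to 0.003 μM.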

Experiment [1] concerns JAK2-dependent nuclear translocation of STAT5-GFP in U-2 OS osteosarcoma cells. Description: STAT5 nuclear translocation assay (Cellomics), rhEpo stimulated U-2 OS STAT5-GFP cells. In kind it is cell-based. To be noted: Homo sapiens, U2OS; STAT5 translocation pathway. The gist of the method: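 U-2 OS cells stably expressing STAT5a-GFP and EpoR pre-treated with compound (final 10 μM to 0.003 μM, 0.1% DMSO) for 30 min at 37° C., then stimulated 1 h with 5 U/ml rhEpo. Nuclear-cytoplasmic GFP differential quantified by automated imaging (≥1000 cells/well, Hoechst nuclear mask). IC50 from % translocation normalized to untreated and DMSO-stimulated controls.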

T1 sequence (O60674 808-1132): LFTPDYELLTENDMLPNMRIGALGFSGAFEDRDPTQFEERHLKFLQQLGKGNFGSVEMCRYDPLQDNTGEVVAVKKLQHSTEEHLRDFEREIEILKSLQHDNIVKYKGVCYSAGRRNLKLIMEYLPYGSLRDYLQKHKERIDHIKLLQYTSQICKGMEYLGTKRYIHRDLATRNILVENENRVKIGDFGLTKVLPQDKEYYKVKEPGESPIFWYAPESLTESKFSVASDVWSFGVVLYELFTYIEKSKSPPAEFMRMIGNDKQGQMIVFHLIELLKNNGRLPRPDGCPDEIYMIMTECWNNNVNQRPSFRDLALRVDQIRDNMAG

For `C[C@@H]1CN(c2ccc(Nc3ncc4ccn(-c5cc(F)cc(F)c5)c4n3)cn2)C[C@H](C)N1` [Example 453, [7-(3,5-Difluoro-phenyl)-7H-pyrrolo[2,3-d]pyrimidin-2-yl]-[6-(cis-3,5-dimethyl-piperazin-1-yl)-pyridin-3-yl]-amine], the results for the IC50 (at GST-JAK2(808-1132); in experiment [1]) were 4.1 nM and 36 nM, respectively.

With `C[C@@H]1CN(Cc2c(F)cc(-n3ccc4cnc(Nc5ccc(N6CCNCC6)nc5)nc43)cc2F)C[C@H](C)O1` [Example 454, {7-[4-(cis-2,6-dimethyl-morpholin-4-ylmethyl)-3,5-difluoro-phenyl]-7H-pyrrolo[2,3-d]pyrimidin-2-yl}-(6-piperazin-1-yl-pyridin-3-yl)-amine], the IC50 at GST-JAK2(808-1132) is 4.5 nM; in experiment [1], 53.5 nM.

`C[C@@H]1CN(C(=O)c2cccc(Nc3ncc4ccn(-c5cc(F)c(CN6CCOCC6)c(F)c5)c4n3)c2)C[C@H](C)N1` [Example 455, {3-[7-(3,5-Difluoro-4-morpholin-4-ylmethyl-phenyl)-7H-pyrrolo[2,3-d]pyrimidin-2-ylamino]-phenyl}-(cis-3,5-dimethyl-piperazin-1-yl)-methanone]: the IC50 on GST-JAK2(808-1132) is 4.3 nM; in experiment [1], 38 nM.

On to `Fc1cc(-n2ccc3cnc(Nc4ccnc(N5CCN(C6CC6)CC5)c4)nc32)cc(F)c1CN1CCOCC1` [Example 456, [2-(4-Cyclopropyl-piperazin-1-yl)-pyridin-4-yl]-[7-(3,5-difluoro-4-morpolin-4-ylmethyl-phenyl)-7H-pyrrolo[2,3-d]pyrimidin-2-yl]-amine], for which the IC50 is no more than 3 nM at GST-JAK2(808-1132) and 1.9 nM in experiment [1].

For `Fc1cc(-n2ccc3cnc(Nc4ccc(N5CCN(C6CC6)CC5)nc4)nc32)cc(F)c1CN1CCOCC1` [Example 457, [6-(4-Cyclopropyl-piperazin-1-yl)-pyridin-3-yl]-[7-(3,5-difluoro-4-morpholin-4-ylmethyl-phenyl)-7H-pyrrolo[2,3-d]pyrimidin-2-yl]-amine], the results for the IC50 (at GST-JAK2(808-1132); in experiment [1]) were no more than 3 nM and 21 nM, respectively.

`C[C@@H]1CN(c2ccc(Nc3ncc4ccn(-c5cc(F)c(CN6CCCC6=O)c(F)c5)c4n3)cn2)C[C@H](C)N1` [Example 458, 1-(4-{2-[6-(cis-3,5-Dimethyl-piperazin-1-yl)-pyridin-3-ylamino]-pyrrolo[2,3-d]pyrimidin-7-yl}-2,6-difluoro-benzyl)-pyrrolidin-2-one]: the IC50 at GST-JAK2(808-1132) was no more than 3 nM; in experiment [1], 1.4 nM.

Turning to `O=C(c1cccc(Nc2ncc3ccn(-c4cc(F)c(CN5CCOCC5)c(F)c4)c3n2)c1)N1CCN(C2CC2)CC1` [Example 459, (4-Cyclopropyl-piperazin-1-yl)-{3-[7-(3,5-difluoro-4-morpholin-4-ylmethyl-phenyl)-7H-pyrrolo[2,3-d]pyrimidin-2-ylamino]-phenyl}-methanone], the IC50 at GST-JAK2(808-1132) turned out to be 5.1 nM; in experiment [1] it was 104 nM.

For the molecule `C[C@@H]1CN(Cc2ccc(Nc3ncc4ccn(-c5cc(F)c(CN6CCCC6=O)c(F)c5)c4n3)cc2)C[C@H](C)N1` [Example 462, 1-(4-{2-[4-(cis-3,5-Dimethyl-piperazin-1-ylmethyl)-phenylamino]-pyrrolo[2,3-d]pyrimidin-7-yl}-2,6-difluoro-benzyl)-pyrrolidin-2-one], the figures for the IC50 (at GST-JAK2(808-1132); in experiment [1]) were no more than 3 nM and 51 nM, respectively.

With `Cc1ccc(Nc2ncc3ccn(-c4cc(F)c(CN5CCCC5=O)c(F)c4)c3n2)cc1CN1CCNCC1` [Example 463, 1-{2,6-Difluoro-4-[2-(4-methyl-3-piperazin-1-ylmethyl-phenylamino)-pyrrolo[2,3-d]pyrimidin-7-yl]-benzyl}-pyrrolidin-2-one], the results for the IC50 (on GST-JAK2(808-1132); in experiment [1]) were no more than 3 nM and 48 nM, respectively.

In the case of `C[C@@H]1CN(Cc2ccc(Nc3ncc4ccn(-c5ccc(S(=O)(=O)NC(C)(C)C)cc5)c4n3)cc2)C[C@H](C)N1` [Example 464, N-tert-Butyl-4-{2-[4-(cis-3,5-dimethyl-piperazin-1-ylmethyl)-phenylamino]-pyrrolo[2,3-d]pyrimidin-7-yl}-benzenesulfonamide], the IC50 on GST-JAK2(808-1132) was no more than 3 nM; in experiment [1], 59 nM.

On to `CN(C)CCN1CCN(c2ccc(Nc3ncc4ccn(-c5cc(F)c(CN6CCOCC6)c(F)c5)c4n3)cn2)CC1` [Example 465, [7-(3,5-Difluoro-4-morpholin-4-ylmethyl-phenyl)-7H-pyrrolo[2,3-d]pyrimidin-2-yl]-{6-[4-(2-dimethylamino-ethyl)-piperazin-1-yl]-pyridin-3-yl}-amine], for which the IC50 is no more than 3 nM on GST-JAK2(808-1132) and 3.2 nM in experiment [1].

For `CN1CCN(C(=O)c2ccc(Nc3ncc4ccn(-c5cc(F)c(CN6CCOCC6)c(F)c5)c4n3)cn2)CC1` [Example 466, {5-[7-(3,5-Difluoro-4-morpholin-4-ylmethyl-phenyl)-7H-pyrrolo[2,3-d]pyrimidin-2-ylamino]-pyridin-2-yl}-(4-methyl-piperazin-1-yl)-methanone], the IC50 on GST-JAK2(808-1132) was 7.9 nM; in experiment [1] it was 56 nM.

For `C[C@@H]1CN(Cc2ccc(Nc3ncc4ccn(-c5ccc6c(c5)CCC(=O)N6)c4n3)cc2)C[C@H](C)N1` [Example 468, 6-{2-[4-(cis-3,5-Dimethyl-piperazin-1-ylmethyl)-phenylamino]-pyrrolo[2,3-d]pyrimidin-7-yl}-3,4-dihydro-1H-quinolin-2-one], the IC50 at GST-JAK2(808-1132) was no more than 3 nM; in experiment [1], 14 nM.

As to `O=C1CNCCN1c1ccc(Nc2ncc3ccn(-c4cc(F)c(CN5CCOCC5)c(F)c4)c3n2)cn1` [Example 470, 1-{5-[7-(3,5-Difluoro-4-morpholin-4-ylmethyl-phenyl)-7H-pyrrolo[2,3-d]pyrimidin-2-ylamino]-pyridin-2-yl}-piperazin-2-one], the results for the IC50 (at GST-JAK2(808-1132); in experiment [1]) were 61 nM and 17 nM, respectively.

For the molecule `Fc1cc(-n2ccc3cnc(Nc4ccc(CN5CCC(F)(F)C5)cc4)nc32)cc(F)c1CN1CCOCC1` [Example 471, [7-(3,5-Difluoro-4-morpholin-4-ylmethyl-phenyl)-7H-pyrrolo[2,3-d]pyrimidin-2-yl]-[4-(3,3-difluoro-pyrrolidin-1-ylmethyl)-phenyl]-amine], the results for the IC50 (at GST-JAK2(808-1132); in experiment [1]) were 3.5 nM and 31.5 nM, respectively.

Take `CN1CCN(Cc2ccc(Nc3ncc4ccn(-c5cc(F)c(CN6CCOCC6)c(F)c5)c4n3)cn2)CC1` [Example 472, [7-(3,5-Difluoro-4-morpholin-4-yl methyl-phenyl)-7H-pyrrolo[2,3-d]pyrimidin-2-yl]-[6-(4-methyl-piperazin-1-ylmethyl)-pyridin-3-yl]-amine]: the IC50 worked out at 3.6 nM at GST-JAK2(808-1132) and 92 nM in experiment [1].

On to `CC1(C)CN(Cc2ccc(Nc3ncc4ccn(-c5cc(F)c(CN6CCOCC6)c(F)c5)c4n3)cc2)CCN1` [Example 473, [7-(3,5-Difluoro-4-morpholin-4-ylmethyl-phenyl)-7H-pyrrolo[2,3-d]pyrimidin-2-yl]-[4-(3,3-dimethyl-piperazin-1-ylmethyl)-phenyl]-amine], for which the IC50 on GST-JAK2(808-1132) is no more than 3 nM; in experiment [1], 12.3 nM.

Consider `Fc1cc(-n2ccc3cnc(Nc4ccc([C@H]5CNCCN5)cc4)nc32)cc(F)c1CN1CCOCC1` [Example 474, [7-(3,5-Difluoro-4-morpholin-4-ylmethyl-phenyl)-7H-pyrrolo[2,3-d]pyrimidin-2-yl]-((S)-4-piperazin-2-yl-phenyl)-amine], for which the IC50 was no more than 3 nM at GST-JAK2(808-1132) and 8.6 nM in experiment [1].

`Fc1cc(-n2ccc3cnc(Nc4ccc([C@@H]5CNCCN5)cc4)nc32)cc(F)c1CN1CCOCC1` [Example 475, [7-(3,5-Difluoro-4-morpholin-4-ylmethyl-phenyl)-7H-pyrrolo[2,3-d]pyrimidin-2-yl]-((R)-4-piperazin-2-yl-phenyl)-amine]: the figures for the IC50 (at GST-JAK2(808-1132); in experiment [1]) were no more than 3 nM and 5.3 nM, respectively.

In the case of `C[C@@H]1CN(Cc2ccc(Nc3ncc4ccn(-c5cc(F)c(CN6CCOCC6)c(F)c5)c4n3)c(F)c2)C[C@H](C)N1` [Example 477, [7-(3,5-Difluoro-4-morpholin-4-ylmethyl-phenyl)-7H-pyrrolo[2,3-d]pyrimidin-2-yl]-[4-(cis-3,5-dimethyl-piperazin-1-ylmethyl)-2-fluoro-phenyl]-amine], the half-maximal inhibitory concentration (IC50) on GST-JAK2(808-1132) was 17 nM; in experiment [1] it was 718 nM.

Take `CN1CCN(c2ccc(Nc3ncc4ccn(-c5cc(F)c(CN6CCOCC6)c(F)c5)c4n3)cn2)C(=O)C1` [Example 478, 1-{5-[7-(3,5-Difluoro-4-morpholin-4-ylmethyl-phenyl)-7H-pyrrolo[2,3-d]pyrimidin-2-ylamino]-pyridin-2-yl}-4-methyl-piperazin-2-one]: the IC50 was found to be 5.5 nM at GST-JAK2(808-1132) and 51 nM in experiment [1].

As to `OC1CN(Cc2ccc(Nc3ncc4ccn(-c5cc(F)c(CN6CCOCC6)c(F)c5)c4n3)cc2)C1` [Example 479, 1-{4-[7-(3,5-Difluoro-4-morpholin-4-ylmethyl-phenyl)-7H-pyrrolo[2,3-d]pyrimidin-2-ylamino]-benzyl}-azetidin-3-ol], the figures for the concentration for half-maximal inhibition (IC50) (on GST-JAK2(808-1132); in experiment [1]) were 3.5 nM and 15 nM, respectively.

`Fc1cc(-n2ccc3cnc(Nc4ccc(CN5CCOCC5)nc4)nc32)cc(F)c1CN1CCOCC1` [Example 480, [7-(3,5-Difluoro-4-morpholin-4-ylmethyl-phenyl)-7H-pyrrolo[2,3-d]pyrimidin-2-yl]-(6-morpholin-4-ylmethyl-pyridin-3-yl)-amine]: the IC50 on GST-JAK2(808-1132) is no more than 3 nM; in experiment [1], 71 nM.

As for `COC1CN(Cc2c(F)cc(-n3ccc4cnc(Nc5ccc(C)c(CN6CCNCC6)c5)nc43)cc2F)C1` [Example 482, {7-[3,5-Difluoro-4-(3-methoxy-azetidin-1-ylmethyl)-phenyl]-7H-pyrrolo[2,3-d]pyrimidin-2-yl}-(4-methyl-3-piperazin-1-ylmethyl-phenyl)-amine], the figures for the IC50 (at GST-JAK2(808-1132); in experiment [1]) were no more than 3 nM and 150 nM, respectively.
